Measured values from patent US20090111846A1, “PHARMACEUTICAL COMPOSITIONS COMPRISING DEXTROMETHORPHAN AND QUINIDINE FOR THE TREATMENT OF DEPRESSION, ANXIETY, AND NEURODEGENERATIVE DISORDERS” (Avanir Pharmaceuticals, priority 2006, published 2009).
Entries after “also recorded” stand apart in the source; their conditions may differ.

How the values were obtained:
[1] = system: glutamate-induced neurotoxicity in neocortical cell cultures, in vitro hypoxia and glucose deprivation models; conditions: cited from earlier work
[2] = system: perioperative brain injury; conditions: cited from earlier work
[3] = Dextromethorphan with quinidine in healthy subjects (Pope et al.); type: in vivo, human; conditions: from 68-fold concentration in brain and plasma levels with quinidine
Procedure: The use of quinidine to inhibit the rapid first-pass metabolism of dextromethorphan allows the attainment of potential neuroprotective drug levels in the brain. […] This dose, 30 mg twice daily (BID) given with 60 mg BID dextromethorphan, increased plasma levels of dextromethorphan 25-fold. In this manner, coadministration of 30 mg of quinidine BID with dextromethorphan in the three unsuccessful amyotrophic lateral sclerosis neuroprotection trials could have readily transformed the inadequate dextromethorphan doses into standard neuroprotective plasma concentrations.
Given the 68-fold concentration of dextromethorphan in brain found in neurosurgery patients (Steinberg et al. J Neurosurg. 1996; 84:860-6), an estimated brain concentration of 13,100 ng/g (about 48 microM) is achievable. This corresponds to neuroprotective levels established in preclinical in vitro (Choi et al. J Pharmacol Exp Ther. 1987; 242:713-20) and in vivo (Steinberg et al. Neurol Res. 1993; 15:174-80) studies.
A reasonable concern is that the achievement of higher dextromethorphan plasma concentrations, as well as the use of quinidine, may be associated with an increased occurrence of adverse events, particularly in patients with neurological disorders. […] No difference was found between the extensive and poor metabolizer phenotypes. […]

[4] = single oral dose 30 mg, extensive metabolizers (N=5); cited from earlier work
[5] = system: methotrexate (MTX) neurotoxicity; conditions: oral 1-2 mg/kg, N=5, all patients; cited from earlier work
[6] = Huntington's disease, N=11; cited from earlier work
[7] = cited from earlier work
[8] = system: neocortical ischemic neuronal damage and edema; conditions: cited from earlier work
[9] = cited from earlier work; remark: listed apart in the source
[10] = system: amyotrophic lateral sclerosis; conditions: cited from earlier work
[11] = ALS, detectable in only 1 of 7 patients, 4.8 to 10 mg/kg/day, at 3 months; cited from earlier work
[12] = in vivo
Procedure: Dosages of other antioxidants will vary with the antioxidant, and are determined on an individual basis.

COc1ccc2c(c1)[C@]13CCCCC1[C@H](C2)N(C)CC3 (single isomer, unassigned; (+)) [dextromethorphan, (+)-3-methoxy-N-methylmorphinan]
concentration giving almost complete protection [1]: 100 µM | levels in CSF ([2]; oral 36-38 mg/kg/day, children, cardiac surgery): 285 to 939 ng/mL | adverse events ([2]; oral 36-38 mg/kg/day): not observed | postoperative EEG sharp waves ([2]; p=0.02, N=13): significantly decreased postoperative EEG sharp waves | third ventricle postoperative enlargement, diameter ([2]; vs. 0.256 cm placebo, p=0.06): 0.112 cm | rate of postoperative periventricular white matter lesions ([2]; vs. 2/7 placebo): 0/6 | estimated brain concentration achievable [3]: 13,100 ng/g and about 48 microM | dextromethorphan in plasma [4]: not detectable or at the limits of detection | neurological symptoms of MTX neurotoxicity [5]: completely resolved neurological symptoms; also recorded: completely resolved neurological deficits | median peak tolerated dose [6]: 410 mg/day | AUC0-12 ([7]; 120 mg daily dextromethorphan (60 mg BID) with quinidine (30 mg BID), steady state): 1963 ± 609 ng·h/mL | steady state peak plasma levels ([7]; 120 mg daily dextromethorphan (60 mg BID) with quinidine (30 mg BID)): 192 ± 45 ng/mL | neuroprotective plasma (serum) levels ([8]; animal models of cerebral ischemia): ≥ 500 ng/mL | neuroprotective brain levels ([8]; conversion of 10,000 ng/g): about 37 microM | adverse reactions ([9]; even at the highest levels, symptoms tolerable and reversible): no patient suffered severe adverse reactions | maximum level in serum ([9]; neurosurgery patients, maximum 9.64 mg/kg oral dose): 1514 ng/mL | maximum level in brain ([9]; neurosurgery patients): 92,700 ng/g | clinical or neurophysiological parameter improvements ([10]; Askmark et al., N=14, 150 mg/day 12-week crossover, then 300 mg/day open): no clinical or neurophysiological parameter | rate of disease progression vs placebo ([10]; Blin et al., N=49, 1.5 mg/kg/day, 1-year): no significant differences in rate of disease progression | 12-month survival ([10]; Gredal et al., N=45, 150 mg/day): did not demonstrate an improvement in 12-month survival | steady-state plasma level (Cmax) [11]: 190 ng/mL

C=C[C@H]1C[N@]2CC[C@@H]1C[C@@H]2[C@@H](O)c1ccnc2ccc(OC)cc12 [quinidine]
lowest dose needed to maximally suppress O-demethylation of dextromethorphan ([7]; human, in vivo): about 30 mg | increase of plasma levels of dextromethorphan ([7]; quinidine 30 mg BID given with 60 mg BID dextromethorphan): 25 fold

CNCCC(Oc1ccc(C(F)(F)F)cc1)c1ccccc1 (stereo not drawn) [fluoxetine]
increase of dextromethorphan concentrations in the blood [12]: effective in increasing dextromethorphan concentrations in the blood of some people
